Data from PMC7496931, “Activation of Sirtuin 2 Inhibitors Employing Photoswitchable Geometry and Aqueous Solubility” (Chemmedchem, 2020).

Key:
[1] = UV/Vis spectra and half-life of thermal Z→E isomerization; format: physicochemical; set-up: k of thermal Z→E isomerization (non-linear regression): unit not given here; settings: for λΔ/max absorption maximum at thermal equilibrium: 50 μM in DMSO/assay buffer; for k of thermal Z→E isomerization (non-linear regression): 50 μM
Experimental: (§1) Photochemistry: All photoisomerization experiments were conducted under ruby light of 630 nm and total exclusion of daylight. Illumination was executed using a Bio‐Link 254 Crosslinker from Vilber‐Lourmat equipped with six Vilber‐Lourmat T8‐L lamps (8 W, 365 nm). Visible light radiation of 630 nm (ruby) and 452 nm (blue) was derived from a Paulmann FlexLED 3D strip. All compounds were irradiated in solution using spectrophotometric grade solvents. Photoisomerization and UV/Vis‐spectra measurement was conducted in quartz glass cuvettes (114‐QS, Hellma Analytics) at room temperature.
UV/Vis Spectra and Half-Life of Thermal Isomerization
The half-life of the thermal Z→E isomerization after 5 minutes of 365 nm irradiation was determined by UV/Vis-spectroscopy. Therefore, solutions of the respective compounds (50 µM) in 5%, 50% or 90% DMSO in enzyme assay buffer (v/v) were prepared. An initial spectrum of the thermal equilibrium was recorded. After 5 minutes of irradiation with 365 nm the increase of absorbance at the thermal equilibrium maximum (λ∆max) was recorded as exemplified by compound 15c (Figure S3). Absorbance at λ = λ ∆max was plotted as a function of time. Non-linear regression yielded the half-life of the thermal Z→E isomerization (Table S1). For extrapolation of the reaction kinetics, the plateau value was set to the initial absorbance at λ=λ∆max. The following equation was used for non-linear regression:
y = (y0 − Plateau)e−kx + Plateau
Figure S3: Left: UV-Vis spectrum of 15c (50 µM) in assay buffer (5% DMSO, v/v) at the thermal equilibrium (∆) and the photostationary state (PSS) after UV irradiation (365 nm). Right:
Absorbance of 15c (50 µm) in assay buffer (5% DMSO, v/v) at λ∆max = 328 nm after 5 minutes of UV (365 nm) irradiation.
(1 picture or pasted object on this page, not shown here)

[2] = Photoisomer distribution (PSD) by HPLC-ELSD; format: physicochemical; settings: for E/Z [%] PSD @ 365 nm / PSD after 365 nm radiation, share of the Z isomer: after 365 nm irradiation; for E/Z [%] PSD @ 365 nm / E/Z [%] PSD @ 452 nm: HPLC in MeOH/water, ELSD; for E/Z [%] PSD @ 452 nm: after 452 nm irradiation
Experimental: as §1

[3] = Reductive stability in the presence of glutathione (HPLC); format: physicochemical; settings: GSH 5 mM, 24 h, ambient temperature, HPLC analysis
Experimental: Reductive stability of 15 c, 15 f and 20 a in the presence of the cellular reductant glutathione (5 mM) was confirmed by HPLC analysis (Figure S5, Table S2). For the cell‐based activity assay, we illuminated the compounds solved in DMSO with UV light (365 nm) prior to incubation with the cells. […] As expected, 15 c and 15 f increased the levels of acetylated lysines H3K18 and H3K56, which are both affirmed substrates of Sirt2. In addition, we found H4K8 hyperacetylation even though this site is usually not affected by sirtuin catalysed deacetylation, indicating a further mode of action. […] In Figure 6, we show the relative results, whereby the acetylation product was related to total target protein and to the vehicle control. Again, we found an increase in acetylated histones induced by 15 c and 15 f which proves activity of these two compounds in living cells.
Glutathione (GSH) is able to reduce certain azobenzenes yielding the respective hydrazines.
Therefore, we determined the reductive stability of 15c, 15f and 20a prior to examination of the biological activity in a cell-based assay. […]
Table S2: Relative percentages (%) of GSH and the respective photoisomers extracted from the HPLC analysis. Samples were analyzed right after addition of GSH (0 h) and after 24 h of incubation at ambient temperature. […]
Fluorescence-Based Activity Assay (ZMAL-Assay)
The influence of the synthesized compounds on the deacetylase activity of the class I sirtuins Sirt1–3 was determined in a homogenous fluorescence-based enzyme assay, using the artificial substrate Z-(Ac)Lys-AMC (ZMAL). […]
The latter is subsequently cleaved by tryptic digestion, releasing 7-amino-4-methylcoumarin (AMC), excitation of which leads to a fluorescent read out (λex=390 nm; λem=460 nm). […]
contribute to the fluorescence signal. Therefore, the fluorescence intensity is proportional to the activity of the respective sirtuin.
After subtraction of the blank fluorescence signal (without enzyme) from the signal of the respective probe, the residual signal intensity is related to a 100 % conversion control (AMC),

[4] = 50 % DMSO (v/v) in assay buffer
[5] = 90 % DMSO (v/v) in assay buffer

NC(=O)c1cncc(/N=N/c2c(O)ccc3ccccc23)c1 [7 c]
melting point: 260 °C

Cc1cc(/N=N/c2cncc(C(N)=O)c2)cc(C)c1N [7 f]
melting point: 255 °C

CC(=O)Nc1c(C)cc(/N=N/c2cncc(C(N)=O)c2)cc1C [9 a]
λΔ/max absorption maximum at thermal equilibrium ([1]; 5 % DMSO (v/v)): 329 nm | k of thermal Z→E isomerization (non-linear regression) ([1]; 5 % DMSO (v/v) in assay buffer): 0.1176

CCCC(=O)Nc1c(C)cc(/N=N/c2cncc(C(N)=O)c2)cc1C [9 b]
E/Z [%] PSD @ 365 nm [2]: 10/90 | E/Z [%] PSD @ 452 nm [2]: 86/14 | λΔ/max absorption maximum at thermal equilibrium ([1]; 5 % DMSO (v/v)): 332 nm | k of thermal Z→E isomerization (non-linear regression) ([1]; 5 % DMSO (v/v) in assay buffer): 0.08608

CCCCCC(=O)Nc1c(C)cc(/N=N/c2cncc(C(N)=O)c2)cc1C [9 c]
E/Z [%] PSD @ 365 nm [2]: 9/91 | E/Z [%] PSD @ 452 nm [2]: 87/13 | λΔ/max absorption maximum at thermal equilibrium ([1]; 50 % DMSO (v/v)): 339 nm | k of thermal Z→E isomerization (non-linear regression) [1, 4]: 0.043

CCCCCCCC(=O)Nc1c(C)cc(/N=N/c2cncc(C(N)=O)c2)cc1C [9 d]
E/Z [%] PSD @ 365 nm [2]: 9/91 | E/Z [%] PSD @ 452 nm [2]: 88/12 | λΔ/max absorption maximum at thermal equilibrium ([1]; 90 % DMSO (v/v)): 345 nm | k of thermal Z→E isomerization (non-linear regression) [1, 5]: 0.03293

CCCCCCCCCC(=O)Nc1c(C)cc(/N=N/c2cncc(C(N)=O)c2)cc1C [9 e]
E/Z [%] PSD @ 365 nm [2]: 10/90 | E/Z [%] PSD @ 452 nm [2]: 90/10 | λΔ/max absorption maximum at thermal equilibrium ([1]; 90 % DMSO (v/v)): 344 nm | k of thermal Z→E isomerization (non-linear regression) [1, 5]: 0.03173

CCCCCCCCCCCC(=O)Nc1c(C)cc(/N=N/c2cncc(C(N)=O)c2)cc1C [9 f]
E/Z [%] PSD @ 365 nm [2]: 10/90 | E/Z [%] PSD @ 452 nm [2]: 91/9 | λΔ/max absorption maximum at thermal equilibrium ([1]; 90 % DMSO (v/v)): 346 nm | k of thermal Z→E isomerization (non-linear regression) [1, 5]: 0.03286

CCCCCCCCCCCCCC(=O)Nc1c(C)cc(/N=N/c2cncc(C(N)=O)c2)cc1C [9 g]
E/Z [%] PSD @ 365 nm [2]: 14/86 | E/Z [%] PSD @ 452 nm [2]: 87/13 | melting point: 254.1 °C | λΔ/max absorption maximum at thermal equilibrium ([1]; 90 % DMSO (v/v)): 345 nm | k of thermal Z→E isomerization (non-linear regression) [1, 5]: 0.02709

Cc1cc(/N=N/c2cncc(C(N)=O)c2)cc(C)c1NC(=O)c1ccccc1 [9 h]
E/Z [%] PSD @ 365 nm [2]: 14/86 | E/Z [%] PSD @ 452 nm [2]: 91/9 | melting point: 267 °C (dec.) | λΔ/max absorption maximum at thermal equilibrium ([1]; 50 % DMSO (v/v)): 337 nm | k of thermal Z→E isomerization (non-linear regression) [1, 4]: 0.9524

Cc1cc(/N=N/c2cncc(C(N)=O)c2)cc(C)c1NC(=O)c1ccc(F)cc1 [9 i]
E/Z [%] PSD @ 365 nm [2]: 12/88 | E/Z [%] PSD @ 452 nm [2]: 91/9 | λΔ/max absorption maximum at thermal equilibrium ([1]; 50 % DMSO (v/v)): 337 nm | k of thermal Z→E isomerization (non-linear regression) [1, 4]: 1.193

Cc1cc(/N=N/c2cncc(C(N)=O)c2)cc(C)c1NC(=O)c1ccc(-c2cccs2)cc1 [9 j]
E/Z [%] PSD @ 365 nm [2]: 29/71 | E/Z [%] PSD @ 452 nm [2]: 93/7 | melting point: 306.5 °C (dec.) | λΔ/max absorption maximum at thermal equilibrium ([1]; 50 % DMSO (v/v)): 330 nm | k of thermal Z→E isomerization (non-linear regression) [1, 4]: 1.212

Cc1cc(/N=N/c2cncc(C(N)=O)c2)cc(C)c1NC(=O)C12CC3CC(CC(C3)C1)C2 [9 k]
E/Z [%] PSD @ 365 nm [2]: 14/86 | E/Z [%] PSD @ 452 nm [2]: 89/11 | λΔ/max absorption maximum at thermal equilibrium ([1]; 50 % DMSO (v/v)): 339 nm | k of thermal Z→E isomerization (non-linear regression) [1, 4]: 0.1022

CC(C)(C)OC(=O)c1ccc(/N=N/c2cncc(C(N)=O)c2)cc1 [15 a]
PSD after 365 nm radiation, share of the Z isomer [2]: 60–70% | E/Z [%] PSD @ 365 nm [2]: 31/69 | E/Z [%] PSD @ 452 nm [2]: 94/6 | λΔ/max absorption maximum at thermal equilibrium ([1]; 50 % DMSO (v/v)): 325 nm | k of thermal Z→E isomerization (non-linear regression) [1, 4]: 0.003905

CC(C)(C)OC(=O)Cc1ccc(/N=N/c2cncc(C(N)=O)c2)cc1 [15 b]
E/Z [%] PSD @ 365 nm [2]: 6/94 | E/Z [%] PSD @ 452 nm [2]: 90/10 | λΔ/max absorption maximum at thermal equilibrium ([1]; 50 % DMSO (v/v)): 332 nm | k of thermal Z→E isomerization (non-linear regression) [1, 4]: 0.02959

NC(=O)c1cncc(/N=N/c2ccc(Br)cc2)c1 [15 d]
E/Z [%] PSD @ 365 nm [2]: 9/91 | E/Z [%] PSD @ 452 nm [2]: 91/9 | λΔ/max absorption maximum at thermal equilibrium ([1]; 5 % DMSO (v/v)): 332 nm | k of thermal Z→E isomerization (non-linear regression) ([1]; 5 % DMSO (v/v) in assay buffer): 0.003156

CCCCNC(=O)c1ccc(/N=N/c2cncc(C(N)=O)c2)cc1 [15 e]
PSD after 365 nm radiation, share of the Z isomer [2]: 60–70% | E/Z [%] PSD @ 365 nm [2]: 40/60 | E/Z [%] PSD @ 452 nm [2]: 89/11 | λΔ/max absorption maximum at thermal equilibrium ([1]; 50 % DMSO (v/v)): 326 nm | k of thermal Z→E isomerization (non-linear regression) [1, 4]: 0.002728

NC(=O)c1cncc(/N=N/c2ccc(C#CCCCCO)cc2)c1 [15 g]
E/Z [%] PSD @ 365 nm [2]: 25/75 | E/Z [%] PSD @ 452 nm [2]: 89/11 | λΔ/max absorption maximum at thermal equilibrium ([1]; 50 % DMSO (v/v)): 355 nm | k of thermal Z→E isomerization (non-linear regression) [1, 4]: 0.0139

CC(C)(O)C#Cc1ccc(/N=N/c2cncc(C(N)=O)c2)cc1 [15 h]
E/Z [%] PSD @ 365 nm [2]: 23/77 | E/Z [%] PSD @ 452 nm [2]: 92/8 | melting point: 223.3 °C | λΔ/max absorption maximum at thermal equilibrium ([1]; 50 % DMSO (v/v)): 350 nm | k of thermal Z→E isomerization (non-linear regression) [1, 4]: 0.00906

NC(=O)c1cncc(OCc2cccc(/N=N/c3ccc(OCc4ccccc4)cc3)c2)c1 [20 a]
E/Z [%] PSD @ 365 nm [2]: 4/96 | E/Z [%] PSD @ 452 nm [2]: 80/20 | Reductive stability in the presence of glutathione [3]: confirmed | λΔ/max absorption maximum at thermal equilibrium ([1]; 50 % DMSO (v/v)): 352 nm | k of thermal Z→E isomerization (non-linear regression) [1, 4]: 0.0207

NC(=O)c1cncc(OCc2cccc(/N=N/c3ccc(F)cc3)c2)c1 [20 b]
E/Z [%] PSD @ 365 nm [2]: 2/98 | E/Z [%] PSD @ 452 nm [2]: 83/17 | melting point: 202.1 °C | λΔ/max absorption maximum at thermal equilibrium ([1]; 50 % DMSO (v/v)): 324 nm

C#Cc1ccc(/N=N/c2cccc(COc3cncc(C(N)=O)c3)c2)cc1 [20 c]
λΔ/max absorption maximum at thermal equilibrium ([1]; 50 % DMSO (v/v)): 340 nm
